Results as given in patent publication US8158828B2, “Nuclear receptor binding agents” (priority 2005, dated 2012).
pEC50, pIC50: −log10 of the molar value. Like-named read-outs stand apart in the source and are kept apart here. Values belong to the compound of their own block, whether it stands above or below them.

Legend:
ER-α = biological target: T1, ER-α (Rattus norvegicus, UniProt P06211); experiment: ER-α transactivation, ERE-LUC in COS or 293 cells; assay type: cell-based; design: % estardiol activity, ER-α: dose or concentration left out as unconfirmed; details: for pEC50: ER alpha agonists; for pIC50: ER alpha antagonists
T1 sequence (P06211 1-600): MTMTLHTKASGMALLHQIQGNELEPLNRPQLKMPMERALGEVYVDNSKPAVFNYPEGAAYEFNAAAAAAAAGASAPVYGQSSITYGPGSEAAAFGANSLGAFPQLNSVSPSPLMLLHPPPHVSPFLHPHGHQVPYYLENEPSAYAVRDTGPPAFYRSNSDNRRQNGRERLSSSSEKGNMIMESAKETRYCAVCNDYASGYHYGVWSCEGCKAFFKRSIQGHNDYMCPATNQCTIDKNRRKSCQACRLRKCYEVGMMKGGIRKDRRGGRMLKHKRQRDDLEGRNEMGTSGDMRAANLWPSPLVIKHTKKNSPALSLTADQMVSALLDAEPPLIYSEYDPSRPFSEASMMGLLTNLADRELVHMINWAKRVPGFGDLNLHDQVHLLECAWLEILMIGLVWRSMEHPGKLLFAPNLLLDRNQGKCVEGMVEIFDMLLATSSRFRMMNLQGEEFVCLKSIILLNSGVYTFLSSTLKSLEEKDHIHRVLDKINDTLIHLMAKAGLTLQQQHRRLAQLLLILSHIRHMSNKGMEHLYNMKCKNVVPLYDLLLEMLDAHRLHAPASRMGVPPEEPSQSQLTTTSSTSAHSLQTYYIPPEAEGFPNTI
Experimental: FIG. 1: Effects of the indicated compounds on ER-α transactivation. COS or 293 cells plated in DME without phenol red+10% charcoal stripped fetal bovine serum (csFBS) at 90,000 cells per well of 24 well plates were transfected with 0.25 μg ERE-LUC, 0.02 μg CMV-LUC (Renilla) and 25 ng of ER-α by lipofectamine. Twenty four hours after transfection, the cells were treated as indicated in the figure, harvested 48 hrs after transfection and were assayed for firefly and renilla luciferase.
(§1) FIG. 5: Effect of the indicated compounds on ER-α transactivation. COS or 293 cells plated in DME without phenol red+10% csFBS at 90,000 cells per well of a 24 well plate were transfected with 0.25 μg ERE-LUC, 0.02 μg CMV-LUC (Renilla) and 5 ng of ER-α by lipofectamine. Twenty four hours after transfection, the cells were treated as indicated in the figure, harvested 48 hrs after transfection and were assayed for firefly and renilla luciferase.
as §1, with “FIG. 9:” for “FIG. 5:”, “csFBS” for “csFBS at 90,000 cells”, “and 25” for “and 5”
Also 25 ng of ER-α (FIGS. 1, 5, and 9), 50 ng of ER-β (FIGS. 2, 6 and 10) or 12.5 ng of AR (FIG. 3) were introduced by lipofectamine. All the receptors were cloned from rat tissue into the PCR3.1 vector backbone. […] Cells were harvested 48 hrs after transfection, and assayed for firefly and Renilla luciferase activity.
Also 25 ng of ER-α), 50 ng of ER-β or 12.5 ng of AR were introduced by lipofectamine. All the receptors were cloned from rat tissue into the PCR3.1 vector backbone. […] Cells were harvested 48 hrs after transfection, and assayed for firefly and Renilla luciferase activity.

ER-β = biological target: T2, ER-β (Rattus norvegicus, UniProt Q62986); experiment: ER-β transactivation, ERE-LUC in COS or 293 cells; assay type: cell-based; design: % estardiol activity, ER-β: dose or concentration left out as unconfirmed; details: for ER-β LUC expression, compound alone: COS or 293 cells
T2 construct: expressed in transfected cells; host or cells: COS or 293 cells
Experimental: as §1, with “FIG. 2:” for “FIG. 5:”, “on ER-β” for “on ER-α”, “and 50” for “and 5”, “of ER-β” for “of ER-α”
as §1, with “FIG. 6:” for “FIG. 5:”, “on ER-β” for “on ER-α”, “and 50” for “and 5”, “of ER-β” for “of ER-α”, “and” for “and were”
as §1, with “FIG. 10:” for “FIG. 5:”, “on ER-β” for “on ER-α”, “in DME+10%” for “in DME without phenol red+10%”, “and 50” for “and 5”, “of ER-β” for “of ER-α”
(§2) All the receptors were cloned from rat tissue into the PCR3.1 vector backbone. […] Cells were harvested 48 hrs after transfection, and assayed for firefly and Renilla luciferase activity.
as §2

[1] = Metabolic stability in human liver microsomes; details: 1 μM substrate, 0.5 mg/mL microsomes
Experimental: Each substrate or reference control was dissolved at a concentration of 10 mM in DMSO, from which a 5 μM spiking solution was prepared by dilution in water. Substrates (1 μM) were incubated in the presence of human liver microsomes (Xenotech LLC, Kansas City Mo.) at 0.5 mg/mL fortified with an NADPH regenerating system at 37° C. and pH 7.4. The NADPH regenerating system consisted of glucose-6-phosphate dehydrogenase (1 units/mL) in 0.05M K2HPO4. Duplicate incubations were performed in 96-well polypropylene cluster tubes in a final volume of 250 μL per reaction. At 0, 2, 4, 6, 10, 30, and 60 minutes a stop solution (300 μL acetonitrile) was added to aliquots of the reaction mixture. Precipitated protein was removed by centrifugation (3000 rpm for 15 minutes) and the supernatants were transferred to clean 96-well plates for analysis.
The samples were injected onto a Phenomenex Luna hexylphenyl 50×2 mm i.d. 5 uM, column fitted with a guard column. An isocratic mobile phase consisting of 50% acetonitrile and 0.1% formic acid in water was used at a flow rate of 0.3 mL/min. The protonated molecular ion (M+H)^+ of the analyte was monitored by MDS/Sciex API 4000QTrap triple quadrupole mass spectrometer using electrospray positive mode ionization with a temperature of 500° C. and a spray voltage of 4000V. Total analysis time was 1.5 min per sample.
Metabolic stability was defined as the amount of substrate metabolized by the incubation with hepatic microsomes and expressed as a percentage of the initial amount of substrate (% remaining) based on peak area. Initial substrate concentration for each analyte was 1 μM. The initial peak area of each substrate was determined at time zero and metabolic stability was assessed based on the change in analyte peak area from time 0 min to a single fixed timepoint for each sample (2-60 min, representative timepoints are shown in Table 2 below).

[2] = ER beta agonists, read-out: EC50 (ER-β)

T2 sequence (Q62986 whole entry): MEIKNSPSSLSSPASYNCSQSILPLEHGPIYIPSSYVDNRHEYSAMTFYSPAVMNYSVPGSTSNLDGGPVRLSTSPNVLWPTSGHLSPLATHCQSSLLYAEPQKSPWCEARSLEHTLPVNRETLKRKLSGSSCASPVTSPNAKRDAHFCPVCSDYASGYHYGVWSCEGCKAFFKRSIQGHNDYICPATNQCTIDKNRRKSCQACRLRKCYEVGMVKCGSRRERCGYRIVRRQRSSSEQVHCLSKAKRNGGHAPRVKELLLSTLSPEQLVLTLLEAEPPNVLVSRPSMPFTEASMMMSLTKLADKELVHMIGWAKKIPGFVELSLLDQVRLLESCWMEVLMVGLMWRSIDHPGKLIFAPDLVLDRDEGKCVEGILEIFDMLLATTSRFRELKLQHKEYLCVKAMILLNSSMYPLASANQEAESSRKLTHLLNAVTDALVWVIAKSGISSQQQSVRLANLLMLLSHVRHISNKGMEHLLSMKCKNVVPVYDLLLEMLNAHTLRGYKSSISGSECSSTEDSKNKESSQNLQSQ

SMILES: O=C(c1cccc(O)c1)N(c1ccc(O)cc1)c1ccc(O)cc1 [Compound 3b, 3-hydroxy-N-bis-(4-hydroxyphenyl)-benzamide]
- pEC50 (ER-α): 8.00

SMILES: O=C(c1ccccc1)N(c1ccccc1)c1ccc(O)cc1 [Compound 3g, N-(4-hydroxyphenyl)-N-phenyl-benzamide]
- ER-β LUC expression, compound alone (ER-β): most potent in stimulating ER-β
- % estardiol activity, ER-α (ER-α): 62.5%

SMILES: O=C(c1ccc(O)cc1)N(c1ccccc1)c1ccc(O)cc1 [Compound 3i, 4-hydroxy-N-(4-hydroxyphenyl)-N-phenyl-benzamide]
- ER-β LUC expression, compound alone (ER-β): most potent in stimulating ER-β
- % estardiol activity, ER-α (ER-α): 77.8%
- ER-α activity (luciferase expression), compound alone (ER-α; COS or 293 cells): most potent in stimulating ER-α

SMILES: O=C(c1ccc(O)cc1)N(c1ccccc1)c1cccc(O)c1 [Compound 3j, 4-hydroxy-N-(3-hydroxyphenyl)-N-phenyl-benzamide]
- % estardiol activity, ER-α (ER-α): 62%

SMILES: O=C(c1ccc(F)cc1)N(c1ccc(O)cc1)c1ccc(O)cc1 [Compound 3k, N,N-bis(4-hydroxyphenyl)-4-fluoro-benzamide]
- % Remaining 0 min ([1]; 0 min): 100%
- % Remaining 10 min ([1]; 10 min): 119%
- % Remaining 30 min ([1]; 30 min): 120%
- % Remaining 60 min ([1]; 60 min): 94%
- pEC50 (ER-α): 7.92

SMILES: Cl.O=C(c1cccc(OCCN2CCCCC2)c1)N(c1ccccc1)c1ccccc1 [Compound 4d, N,N-diphenyl-[3-(2-piperidinylethoxy)]-benzamide hydrochloride]
- % estardiol activity, ER-β (ER-β): 30.7%
- % estardiol activity, ER-α (ER-α): 16.8%

SMILES: O=C(c1ccc(O)c(F)c1)N(c1ccccc1)c1ccc(O)cc1 [Compound 10f, 3-fluoro-4-hydroxy-N-(4-hydroxyphenyl)-N-phenylbenzamide]
- pEC50 (ER-β): 7.38
- % estardiol activity, ER-α (ER-α): 85%

SMILES: Cc1cccc(C(=O)N(c2ccc(O)cc2)c2ccc(O)cc2)c1C [Compound 10j, N,N-bis(4-hydroxyphenyl)-2,3-dimethylbenzamide]
- pIC50 (ER-β): 7.70

SMILES: CCCc1ccc(C(=O)N(c2ccc(O)cc2)c2ccc(O)cc2)cc1 [Compound 10l, N,N-bis(4-hydroxyphenyl)-4-propylbenzamide]
- pEC50 (ER-β): 7.57
- % estardiol activity, ER-α (ER-α): 32%

SMILES: Cc1cccc(CN(c2ccc(O)cc2)c2ccc(O)cc2)c1C [Compound 10t, 4,4′-(2,3-dimethyl-benzylazanediyl)diphenol]
- pIC50 (ER-β): 7.77

Continued, in another order:

- pEC50 (ER-α): 7.65
SMILES: O=C(c1ccc(O)cc1)N(c1ccc(O)cc1)c1ccc(-c2ccccc2)cc1 [Compound 3v, N-biphenyl-4-yl-4-hydroxy-N-(4-hydroxyphenyl)-benzamide]

- pEC50 (ER-β; [2]): 7.07
- % estardiol activity, ER-α (ER-α): 21.4%
SMILES: Cc1ccc(C(=O)N(c2ccc(O)cc2)c2ccc(O)cc2)cc1C [Compound 10d, N,N-bis(4-hydroxyphenyl)-3,4-dimethylbenzamide]

- pIC50 (ER-α): > 8.00
SMILES: O=C(c1ccc(O)c(O)c1)N(c1ccc(O)cc1)c1ccc(O)cc1 [Compound 10m, 3,4-dihydroxy-N,N-bis(4-hydroxyphenyl)-benzamide]

- pIC50 (ER-β; ER beta antagonist, read-out: IC50 (ER-β)): 7.33
SMILES: Cc1cc(C(=O)N(c2ccc(O)cc2)c2ccc(O)cc2)ccc1O [Compound 10n, 4-hydroxy-N,N-bis(4-hydroxyphenyl)-3-methylbenzamide]

- % estardiol activity, ER-α (ER-α): 12%
SMILES: CCCc1ccc(C(=O)N(c2ccc(O)cc2)c2ccc(OCCN3CCCCC3)cc2)cc1 [Compound 10o, N-(4-hydroxyphenyl)-N-(4-(2-(piperidin-1-yl)ethoxy)phenyl)-4-propylbenzamide]
- inhibition of estradiol (E2) induced ER-α activity (luciferase expression) (ER-α; COS or 293 cells, with estrogen): inhibited estrogen stimulated luciferase expression

- % estardiol activity, ER-α (ER-α): 21.9%
SMILES: O=C(c1ccc(O)cc1)N(c1ccc(O)cc1)C1CCCCC1 [Compound 10w, N-cyclohexyl-4-hydroxy-N-(4-hydroxyphenyl)benzamide]

- pEC50 (ER-α): 7.80
SMILES: Oc1ccc(CN(c2ccc(O)cc2)c2ccc(F)cc2)cc1 [Compound 10x, 4-((4-fluorophenyl)(4-hydroxybenzyl)amino)phenol]

- pIC50 (ER-α): 7.16
SMILES: O=C(c1cccc2ccccc12)N(c1ccc(O)cc1)c1ccc(OCCN2CCCCC2)cc1 [Compound 11f, N-(4-hydroxyphenyl)-N-(4-(2-(piperidin-1-yl)ethoxy)phenyl)-1-naphthamide]

- pIC50 (ER-α): 7.80
SMILES: O=C(c1cccc(F)c1)N(c1ccc(O)cc1)c1ccc(OCCN2CCCCC2)cc1 [Compound 11g, 3-fluoro-N-(4-hydroxyphenyl)-N-(4-(2-(piperidin-1-yl)ethoxy)phenyl)benzamide]

- pEC50 (ER-β; [2]): > 8.00
SMILES: CCCCCc1ccc(C(=O)N(c2ccc(O)cc2)c2ccc(O)cc2)cc1 [Compound 11p, N,N-bis(4-hydroxyphenyl)-4-pentylbenzamide]
